The text below walks through data of ChEMBL document CHEMBL5291721, “A preclinical secondary pharmacology resource illuminates target-adverse drug reaction associations of marketed drugs” (Nat Commun, 2023).

What is called AC50 is the concentration at which the activity in the assay is half-maximal. Low values mean activity at low concentration, high ones activity only at high concentration.

The target in experiment [1] is Glutamate receptor ionotropic, NMDA 1 (Rattus norvegicus, UniProt P35439).
Experiment [2] deals with T1, 5-hydroxytryptamine receptor 2C (Homo sapiens, UniProt P28335).
T1 sequence (P28335 whole entry): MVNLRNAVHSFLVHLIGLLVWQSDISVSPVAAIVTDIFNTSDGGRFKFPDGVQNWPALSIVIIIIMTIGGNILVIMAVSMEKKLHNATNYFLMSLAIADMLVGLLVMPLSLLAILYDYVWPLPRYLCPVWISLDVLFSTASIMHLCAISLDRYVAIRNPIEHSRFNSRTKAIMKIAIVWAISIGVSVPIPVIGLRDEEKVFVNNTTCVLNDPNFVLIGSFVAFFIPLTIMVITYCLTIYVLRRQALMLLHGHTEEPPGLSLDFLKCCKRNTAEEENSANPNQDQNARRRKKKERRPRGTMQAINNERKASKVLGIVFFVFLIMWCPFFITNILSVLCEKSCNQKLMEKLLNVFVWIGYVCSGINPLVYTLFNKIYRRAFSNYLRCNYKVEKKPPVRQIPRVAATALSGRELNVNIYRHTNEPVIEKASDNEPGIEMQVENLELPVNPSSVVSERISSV

Experiment [3] deals with T2, Equilibrative nucleoside transporter 1 (Homo sapiens, UniProt Q99808).
T2 sequence (Q99808 whole entry): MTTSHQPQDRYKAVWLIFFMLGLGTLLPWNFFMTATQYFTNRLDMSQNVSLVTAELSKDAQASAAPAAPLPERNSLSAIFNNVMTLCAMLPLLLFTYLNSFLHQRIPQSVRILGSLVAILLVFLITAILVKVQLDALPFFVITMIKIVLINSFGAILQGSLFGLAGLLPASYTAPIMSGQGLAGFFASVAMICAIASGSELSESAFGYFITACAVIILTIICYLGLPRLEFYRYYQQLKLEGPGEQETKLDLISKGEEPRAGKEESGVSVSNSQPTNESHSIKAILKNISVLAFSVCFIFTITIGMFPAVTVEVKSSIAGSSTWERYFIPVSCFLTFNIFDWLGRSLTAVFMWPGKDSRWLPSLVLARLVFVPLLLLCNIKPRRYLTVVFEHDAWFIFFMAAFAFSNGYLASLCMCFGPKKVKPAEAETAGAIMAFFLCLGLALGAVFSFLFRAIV

For experiment [4], the target named is Beta-2 adrenergic receptor (Homo sapiens, UniProt P07550). It is filed as functional, cell-based.
Chain of Beta-2 adrenergic receptor (P07550 whole entry): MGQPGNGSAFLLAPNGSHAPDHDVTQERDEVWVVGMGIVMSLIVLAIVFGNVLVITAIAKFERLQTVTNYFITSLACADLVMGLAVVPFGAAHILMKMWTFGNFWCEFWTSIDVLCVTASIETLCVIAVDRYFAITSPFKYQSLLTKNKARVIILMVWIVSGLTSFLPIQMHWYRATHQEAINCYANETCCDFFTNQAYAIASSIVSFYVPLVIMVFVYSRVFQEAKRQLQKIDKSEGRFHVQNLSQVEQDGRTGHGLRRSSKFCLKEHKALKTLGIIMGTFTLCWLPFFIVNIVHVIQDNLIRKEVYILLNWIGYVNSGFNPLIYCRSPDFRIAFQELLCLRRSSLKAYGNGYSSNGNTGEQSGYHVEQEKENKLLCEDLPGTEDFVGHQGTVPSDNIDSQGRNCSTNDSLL
Experiment [5] has as its target T3, cGMP-inhibited 3',5'-cyclic phosphodiesterase 3A (Homo sapiens, UniProt Q14432). The experiment is classed as functional.
For experiment [6], the target named is T4, Endothelin-1 receptor (Homo sapiens, UniProt P25101).
T4 sequence (P25101 whole entry): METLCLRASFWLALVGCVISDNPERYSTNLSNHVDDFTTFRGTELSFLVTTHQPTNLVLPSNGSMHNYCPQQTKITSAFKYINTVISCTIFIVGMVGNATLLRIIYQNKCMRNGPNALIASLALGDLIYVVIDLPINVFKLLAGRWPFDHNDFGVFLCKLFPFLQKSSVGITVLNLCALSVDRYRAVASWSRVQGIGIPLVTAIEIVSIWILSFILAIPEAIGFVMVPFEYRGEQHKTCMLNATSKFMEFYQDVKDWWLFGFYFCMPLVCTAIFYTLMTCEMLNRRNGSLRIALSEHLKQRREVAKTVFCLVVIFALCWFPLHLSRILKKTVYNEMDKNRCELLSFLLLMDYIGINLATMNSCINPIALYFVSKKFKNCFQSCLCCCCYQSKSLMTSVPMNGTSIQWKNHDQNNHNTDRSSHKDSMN

For experiment [7], the target named is D(1A) dopamine receptor (Homo sapiens, UniProt P21728). It is filed as functional, cell-based.
Chain of D(1A) dopamine receptor (P21728 whole entry): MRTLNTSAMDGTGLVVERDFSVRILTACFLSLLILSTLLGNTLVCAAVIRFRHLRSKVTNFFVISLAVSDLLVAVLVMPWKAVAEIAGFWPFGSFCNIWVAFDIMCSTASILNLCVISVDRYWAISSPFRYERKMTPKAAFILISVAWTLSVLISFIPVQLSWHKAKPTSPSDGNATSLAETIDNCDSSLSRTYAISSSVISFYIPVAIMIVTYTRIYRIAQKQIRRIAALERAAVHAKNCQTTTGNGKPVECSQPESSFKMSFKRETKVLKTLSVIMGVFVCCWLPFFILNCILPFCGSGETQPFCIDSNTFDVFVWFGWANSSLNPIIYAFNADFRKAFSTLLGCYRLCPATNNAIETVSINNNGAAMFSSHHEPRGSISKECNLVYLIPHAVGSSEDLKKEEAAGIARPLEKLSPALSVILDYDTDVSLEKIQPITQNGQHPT
Experiment [8] has as its target T5, Prostaglandin G/H synthase 1 (Rattus norvegicus, UniProt Q63921).
T5 sequence (Q63921 whole entry): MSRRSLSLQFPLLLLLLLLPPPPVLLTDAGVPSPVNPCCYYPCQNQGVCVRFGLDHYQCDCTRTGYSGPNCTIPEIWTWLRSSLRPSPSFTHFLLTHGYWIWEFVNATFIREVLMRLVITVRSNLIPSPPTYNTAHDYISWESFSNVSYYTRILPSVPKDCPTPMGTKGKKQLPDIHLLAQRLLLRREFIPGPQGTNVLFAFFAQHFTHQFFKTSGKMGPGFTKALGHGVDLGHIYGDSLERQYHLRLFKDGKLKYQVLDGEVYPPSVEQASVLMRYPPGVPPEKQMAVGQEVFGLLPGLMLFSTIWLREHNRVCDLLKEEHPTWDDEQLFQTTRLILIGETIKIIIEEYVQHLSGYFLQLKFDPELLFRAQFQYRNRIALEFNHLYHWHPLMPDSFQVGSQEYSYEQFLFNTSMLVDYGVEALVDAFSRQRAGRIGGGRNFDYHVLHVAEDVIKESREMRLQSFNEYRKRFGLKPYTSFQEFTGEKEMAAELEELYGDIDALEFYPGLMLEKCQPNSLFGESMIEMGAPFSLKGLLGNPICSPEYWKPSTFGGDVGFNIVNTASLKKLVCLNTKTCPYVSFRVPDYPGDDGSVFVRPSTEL
The experiment is classed as functional.

For experiment [9], the target named is 3',5'-cyclic-AMP phosphodiesterase 4A (Homo sapiens, UniProt P27815). The experiment is classed as functional.
Chain of 3',5'-cyclic-AMP phosphodiesterase 4A (P27815 whole entry): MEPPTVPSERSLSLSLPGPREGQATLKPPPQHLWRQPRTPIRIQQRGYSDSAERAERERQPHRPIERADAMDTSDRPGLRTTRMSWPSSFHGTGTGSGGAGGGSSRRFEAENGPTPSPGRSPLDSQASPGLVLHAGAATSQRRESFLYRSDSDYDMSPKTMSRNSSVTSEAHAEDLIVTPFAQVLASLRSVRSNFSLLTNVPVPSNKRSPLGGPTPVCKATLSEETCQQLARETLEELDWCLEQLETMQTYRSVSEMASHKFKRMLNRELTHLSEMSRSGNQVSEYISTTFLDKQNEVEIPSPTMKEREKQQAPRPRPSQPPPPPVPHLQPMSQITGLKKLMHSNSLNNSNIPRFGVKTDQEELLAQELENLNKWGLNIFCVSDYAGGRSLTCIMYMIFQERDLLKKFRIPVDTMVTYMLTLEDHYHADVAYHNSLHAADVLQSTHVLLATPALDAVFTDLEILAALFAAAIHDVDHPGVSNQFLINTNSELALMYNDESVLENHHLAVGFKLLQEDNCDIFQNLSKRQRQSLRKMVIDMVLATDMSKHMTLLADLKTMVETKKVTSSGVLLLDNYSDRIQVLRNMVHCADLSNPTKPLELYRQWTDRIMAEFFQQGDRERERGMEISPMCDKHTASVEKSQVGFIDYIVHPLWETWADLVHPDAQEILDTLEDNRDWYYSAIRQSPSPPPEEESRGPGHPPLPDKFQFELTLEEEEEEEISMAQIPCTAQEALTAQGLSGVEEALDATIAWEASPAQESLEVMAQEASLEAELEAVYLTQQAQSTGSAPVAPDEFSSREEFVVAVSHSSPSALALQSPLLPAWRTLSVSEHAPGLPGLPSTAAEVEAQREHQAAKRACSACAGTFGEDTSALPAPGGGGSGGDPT
Experiment [10] deals with D(3) dopamine receptor (Homo sapiens, UniProt P35462).
Chain of D(3) dopamine receptor (P35462 whole entry): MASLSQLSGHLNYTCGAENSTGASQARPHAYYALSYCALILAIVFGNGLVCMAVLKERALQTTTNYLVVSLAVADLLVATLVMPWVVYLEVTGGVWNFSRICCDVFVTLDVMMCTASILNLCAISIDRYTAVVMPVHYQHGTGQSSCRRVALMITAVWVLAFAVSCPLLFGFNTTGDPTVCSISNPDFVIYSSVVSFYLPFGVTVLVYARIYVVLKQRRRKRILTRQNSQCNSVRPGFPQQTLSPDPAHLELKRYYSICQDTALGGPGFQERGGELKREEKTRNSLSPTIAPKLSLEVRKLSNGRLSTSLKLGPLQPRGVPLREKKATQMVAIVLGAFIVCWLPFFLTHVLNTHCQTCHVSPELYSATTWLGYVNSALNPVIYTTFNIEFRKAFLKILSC
Experiment [11] has as its target T3, cGMP-inhibited 3',5'-cyclic phosphodiesterase 3A. The experiment is classed as functional. The source holds these as a separate data set.
The target in experiment [12] is 5-hydroxytryptamine receptor 2A (Homo sapiens, UniProt P28223). The experiment is classed as functional, cell-based.
Chain of 5-hydroxytryptamine receptor 2A (P28223 whole entry): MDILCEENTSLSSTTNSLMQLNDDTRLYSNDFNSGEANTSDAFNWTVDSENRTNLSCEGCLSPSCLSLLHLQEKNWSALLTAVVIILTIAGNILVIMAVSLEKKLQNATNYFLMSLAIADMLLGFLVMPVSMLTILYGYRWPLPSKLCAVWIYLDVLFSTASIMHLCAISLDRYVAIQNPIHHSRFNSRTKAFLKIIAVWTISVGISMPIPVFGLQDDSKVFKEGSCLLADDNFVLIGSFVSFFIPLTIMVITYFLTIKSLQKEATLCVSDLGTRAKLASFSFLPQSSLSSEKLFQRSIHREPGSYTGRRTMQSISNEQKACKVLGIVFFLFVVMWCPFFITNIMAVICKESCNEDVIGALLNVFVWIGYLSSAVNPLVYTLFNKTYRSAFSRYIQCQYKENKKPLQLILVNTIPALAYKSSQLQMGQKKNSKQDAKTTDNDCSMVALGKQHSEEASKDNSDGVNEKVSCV

Structures are written as SMILES.
Further: assay procedure not described here.

T3 sequence (Q14432 whole entry): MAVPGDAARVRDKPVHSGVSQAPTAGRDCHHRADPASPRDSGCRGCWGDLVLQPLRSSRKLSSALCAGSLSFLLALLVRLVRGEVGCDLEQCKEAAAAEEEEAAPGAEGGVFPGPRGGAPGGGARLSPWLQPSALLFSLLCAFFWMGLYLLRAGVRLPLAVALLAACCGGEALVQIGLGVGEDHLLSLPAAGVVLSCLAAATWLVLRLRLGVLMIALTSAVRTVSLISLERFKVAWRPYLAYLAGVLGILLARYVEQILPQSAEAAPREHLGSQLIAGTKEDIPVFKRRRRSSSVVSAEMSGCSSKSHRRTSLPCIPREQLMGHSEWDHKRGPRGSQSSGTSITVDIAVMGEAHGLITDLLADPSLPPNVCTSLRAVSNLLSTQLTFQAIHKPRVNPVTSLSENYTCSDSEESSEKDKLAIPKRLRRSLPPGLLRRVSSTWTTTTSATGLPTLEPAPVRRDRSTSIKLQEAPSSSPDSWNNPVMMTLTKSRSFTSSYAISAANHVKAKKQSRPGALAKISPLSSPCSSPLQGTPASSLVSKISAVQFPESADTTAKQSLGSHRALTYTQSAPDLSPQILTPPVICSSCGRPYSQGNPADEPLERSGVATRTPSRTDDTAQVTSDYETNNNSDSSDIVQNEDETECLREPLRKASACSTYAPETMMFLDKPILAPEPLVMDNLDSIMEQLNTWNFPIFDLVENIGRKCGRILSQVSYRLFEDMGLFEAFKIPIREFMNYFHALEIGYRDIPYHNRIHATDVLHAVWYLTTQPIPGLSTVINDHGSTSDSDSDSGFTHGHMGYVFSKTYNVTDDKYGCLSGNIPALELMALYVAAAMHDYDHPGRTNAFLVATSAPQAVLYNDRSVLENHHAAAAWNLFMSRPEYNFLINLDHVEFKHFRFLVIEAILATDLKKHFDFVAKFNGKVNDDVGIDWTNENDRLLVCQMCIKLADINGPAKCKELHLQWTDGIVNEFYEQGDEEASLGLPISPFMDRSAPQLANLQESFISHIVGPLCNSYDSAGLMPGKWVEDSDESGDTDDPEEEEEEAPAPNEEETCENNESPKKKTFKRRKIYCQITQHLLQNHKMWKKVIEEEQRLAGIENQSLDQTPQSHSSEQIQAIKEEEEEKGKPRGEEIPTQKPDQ

On to `c1ccc([C@H]2CN3CCSC3=N2)cc1` [LEVAMISOLE], for which the AC50 in experiment [1], in experiment [2], in [3], in [4], in [5] and in experiment [6] was more than 30 µM in each case. The AC50 is 1.6 µM in experiment [7] and more than 30 µM in experiment [8].
Regarding `CN(C)CCC(c1ccc(Cl)cc1)c1ccccn1` (stereo not drawn) [CHLORPHENIRAMINE], the AC50 in experiment [1] was more than 10 µM; in [2], more than 10 µM; in experiment [3] it was more than 30 µM; in experiment [4], more than 30 µM; in experiment [5], more than 10 µM; in experiment [6], more than 30 µM. Also, the AC50 is more than 10 µM in experiment [7] and more than 30 µM in experiment [8].
As for `CO[C@H]1C[C@@H]2CC[C@@H](C)[C@@](O)(O2)C(=O)C(=O)N2CCCC[C@H]2C(=O)O[C@H]([C@H](C)C[C@@H]2CC[C@@H](O)[C@H](OC)C2)CC(=O)[C@H](C)/C=C(\C)[C@@H](O)[C@@H](OC)C(=O)[C@H](C)C[C@H](C)/C=C/C=C/C=C/1C` [SIROLIMUS], the AC50 in experiment [1] is more than 10 µM; in experiment [9] it was more than 30 µM; in [2] it was more than 30 µM; in experiment [10], more than 30 µM; in experiment [3] it was 6.8 µM; in experiment [4], more than 30 µM. Moreover, the AC50 is more than 30 µM in experiment [5]; more than 30 µM in experiment [6]; more than 10 µM in [7]; more than 30 µM in [11]; more than 30 µM in [8].
For `CCOC(=O)[C@H](CCc1ccccc1)N[C@@H](C)C(=O)N1[C@H](C(=O)O)C[C@@H]2CCC[C@@H]21`, the AC50 in experiment [1] is more than 10 µM; in experiment [2], more than 30 µM; in [3], more than 30 µM; in [4] it was more than 30 µM; in [5], more than 30 µM; in experiment [6], more than 30 µM. The AC50 is more than 10 µM in experiment [7] and more than 30 µM in [8].
In the case of `Cc1nc([N+](=O)[O-])cn1-c1ccc([N+](=O)[O-])cc1` [NITREFAZOLE], the AC50 in experiment [1], in experiment [2], in experiment [4], in experiment [5], in [12] and in experiment [6] was more than 30 µM each time. Also, the AC50 in experiment [7] and in experiment [8] was more than 30 µM in each case.
On to `CNC(=O)c1ccccc1Sc1ccc2c(/C=C/c3ccccn3)n[nH]c2c1` [AXITINIB], for which the AC50 in experiment [2], in experiment [3], in [4], in experiment [5], in experiment [12] and in experiment [6] was more than 30 µM throughout. Besides, the AC50 in experiment [7] and in [8] was more than 30 µM in each case.
In the case of `NCC(CC(=O)O)c1ccc(Cl)cc1` (stereo not drawn) [BACLOFEN], the AC50 is more than 10 µM in experiment [1]; more than 30 µM in experiment [9]; more than 30 µM in experiment [2]; 14.7 µM in [10]; more than 30 µM in experiment [3]; more than 30 µM in experiment [4]. Also, the AC50 in experiment [5], in experiment [6], in experiment [7], in [11] and in experiment [8] was more than 30 µM in each case.
For the molecule `CNC1Cc2ccccc2N(C)c2ccccc21` (stereo not drawn) [METAPRAMINE], the AC50 is 29 µM in [2]; more than 30 µM in experiment [3]; more than 30 µM in experiment [4]; more than 30 µM in experiment [5]; more than 30 µM in experiment [12]; more than 30 µM in [6]. In addition, the AC50 in experiment [7] and in experiment [8] was more than 30 µM throughout.
Turning to `CS(=O)(=O)c1ccc(C2=C(c3ccccc3)C(=O)OC2)cc1` [ROFECOXIB], the AC50 was more than 10 µM in experiment [1]; more than 30 µM in [9]; more than 30 µM in experiment [2]; more than 30 µM in experiment [10]; more than 30 µM in [3]; more than 30 µM in experiment [4]. Moreover, the AC50 is more than 30 µM in experiment [5], more than 30 µM in experiment [6], more than 10 µM in [7] and more than 30 µM in experiment [11].
`CN(C)CCC=C1c2ccccc2C(C)(C)c2ccccc21`: the AC50 in experiment [2] is 5.8 µM; in experiment [3] it was more than 30 µM; in experiment [4], more than 30 µM; in experiment [5], more than 30 µM; in experiment [12], 4.5 µM; in [6] it was more than 30 µM. Moreover, the AC50 in experiment [7] and in experiment [8] was more than 30 µM each time.
Take `CC(C)C[C@H]1C(=O)N2CCC[C@H]2[C@]2(O)O[C@](NC(=O)[C@@H]3C=C4c5cccc6[nH]c(Br)c(c56)C[C@H]4N(C)C3)(C(C)C)C(=O)N12` [BROMOCRIPTINE]: the AC50 was more than 10 µM in [1]; more than 30 µM in experiment [9]; 12 µM in [2]; 13 µM in experiment [3]; more than 30 µM in [4]; more than 30 µM in experiment [5]. Further, the AC50 in experiment [6] is more than 30 µM; in [7] it was 1.52 µM; in experiment [11], more than 30 µM; in experiment [8] it was more than 30 µM.
In the case of `C[C@@H](O)[C@H]1C(=O)N2C(C(=O)O)=C(S[C@@H]3CN[C@H](C(=O)N(C)C)C3)[C@H](C)[C@H]12` [MEROPENEM], the AC50 is more than 10 µM in experiment [1]; more than 300 µM in [2]; more than 300 µM in [3]; more than 300 µM in experiment [4]; more than 300 µM in [5]; more than 300 µM in experiment [6]. Moreover, the concentration at half-maximal activity (AC50) in [7] was more than 300 µM; in [8], 33.4 µM.
For the molecule `C[C@]12CCC(=O)C=C1CC[C@@H]1[C@@H]2[C@@H](O)C[C@@]2(C)[C@H]1CC[C@]2(O)C(=O)CO` [HYDROCORTISONE], the AC50 was more than 10 µM in [1]; more than 30 µM in [2]; more than 30 µM in experiment [3]; more than 30 µM in experiment [4]; more than 30 µM in experiment [5]; more than 30 µM in experiment [6]. The half-maximal activity concentration (AC50) in [7] was more than 10 µM; in [8], more than 30 µM.
`CC(=O)Nc1ccc(O)cc1` [ACETAMINOPHEN]: the AC50 in experiment [9], in experiment [2], in [10], in experiment [3], in experiment [4] and in experiment [5] was more than 30 µM each time. Also, the AC50 in [6], in experiment [11] and in [8] was more than 30 µM throughout.
